Patent US12421232B2, “Kinase inhibitor compounds and compositions and methods of use” (ICAHN SCHOOL OF MEDICINE AT MOUNT SINAI, priority 2018, dated 2025)
Substitutions are numbered along the chain they refer to. Read-outs that look alike come from different tables or passages of the source.

Experiments:
Experiment in all cases: KINOMEscan Assay (DiscoverX)
Assay type in all cases: binding
Settings in all cases: read-out: % DMSO Ctrl
FLT3(D835V) = molecular target: T1, FLT3(D835V) (Homo sapiens, UniProt P36888, D835V)
T1 construct: purchased DiscoverX
T1 sequence (P36888 27-993 D835V): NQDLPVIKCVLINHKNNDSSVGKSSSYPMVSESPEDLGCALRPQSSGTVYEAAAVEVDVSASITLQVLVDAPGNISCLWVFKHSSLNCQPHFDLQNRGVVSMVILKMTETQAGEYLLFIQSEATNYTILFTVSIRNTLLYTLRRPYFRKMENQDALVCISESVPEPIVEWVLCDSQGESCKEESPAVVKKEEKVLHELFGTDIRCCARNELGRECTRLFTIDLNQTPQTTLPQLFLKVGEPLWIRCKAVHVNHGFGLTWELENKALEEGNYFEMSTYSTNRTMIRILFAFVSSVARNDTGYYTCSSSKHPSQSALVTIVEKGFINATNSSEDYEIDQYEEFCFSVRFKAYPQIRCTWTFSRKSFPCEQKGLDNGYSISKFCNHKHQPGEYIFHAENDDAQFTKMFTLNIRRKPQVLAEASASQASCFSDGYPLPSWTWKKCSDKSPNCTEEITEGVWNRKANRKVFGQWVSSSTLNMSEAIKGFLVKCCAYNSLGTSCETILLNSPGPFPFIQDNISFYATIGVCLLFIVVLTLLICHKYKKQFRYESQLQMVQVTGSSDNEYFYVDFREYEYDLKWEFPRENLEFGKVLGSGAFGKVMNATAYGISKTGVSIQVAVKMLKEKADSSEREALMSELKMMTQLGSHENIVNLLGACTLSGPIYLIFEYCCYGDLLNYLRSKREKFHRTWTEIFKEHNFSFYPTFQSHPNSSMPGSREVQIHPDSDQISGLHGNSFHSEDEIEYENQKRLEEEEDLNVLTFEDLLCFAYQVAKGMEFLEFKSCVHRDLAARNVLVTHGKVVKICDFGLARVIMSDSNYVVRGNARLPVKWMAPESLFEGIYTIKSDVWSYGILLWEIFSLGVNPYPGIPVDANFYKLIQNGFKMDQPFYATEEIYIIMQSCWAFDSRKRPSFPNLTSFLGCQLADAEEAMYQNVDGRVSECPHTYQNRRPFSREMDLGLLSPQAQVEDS

FLT3(K663Q) = molecular target: T2, FLT3(K663Q) (Homo sapiens, UniProt P36888, K663Q)
T2 construct: purchased DiscoverX
T2 sequence (P36888 27-993 K663Q): T1 sequence (P36888 27-993 D835V) with K637Q, V809D

KIT(L576P) = molecular target: T3, KIT(L576P) (Homo sapiens, UniProt P10721, L576P)
T3 construct: purchased DiscoverX
T3 sequence (P10721 26-976 L576P): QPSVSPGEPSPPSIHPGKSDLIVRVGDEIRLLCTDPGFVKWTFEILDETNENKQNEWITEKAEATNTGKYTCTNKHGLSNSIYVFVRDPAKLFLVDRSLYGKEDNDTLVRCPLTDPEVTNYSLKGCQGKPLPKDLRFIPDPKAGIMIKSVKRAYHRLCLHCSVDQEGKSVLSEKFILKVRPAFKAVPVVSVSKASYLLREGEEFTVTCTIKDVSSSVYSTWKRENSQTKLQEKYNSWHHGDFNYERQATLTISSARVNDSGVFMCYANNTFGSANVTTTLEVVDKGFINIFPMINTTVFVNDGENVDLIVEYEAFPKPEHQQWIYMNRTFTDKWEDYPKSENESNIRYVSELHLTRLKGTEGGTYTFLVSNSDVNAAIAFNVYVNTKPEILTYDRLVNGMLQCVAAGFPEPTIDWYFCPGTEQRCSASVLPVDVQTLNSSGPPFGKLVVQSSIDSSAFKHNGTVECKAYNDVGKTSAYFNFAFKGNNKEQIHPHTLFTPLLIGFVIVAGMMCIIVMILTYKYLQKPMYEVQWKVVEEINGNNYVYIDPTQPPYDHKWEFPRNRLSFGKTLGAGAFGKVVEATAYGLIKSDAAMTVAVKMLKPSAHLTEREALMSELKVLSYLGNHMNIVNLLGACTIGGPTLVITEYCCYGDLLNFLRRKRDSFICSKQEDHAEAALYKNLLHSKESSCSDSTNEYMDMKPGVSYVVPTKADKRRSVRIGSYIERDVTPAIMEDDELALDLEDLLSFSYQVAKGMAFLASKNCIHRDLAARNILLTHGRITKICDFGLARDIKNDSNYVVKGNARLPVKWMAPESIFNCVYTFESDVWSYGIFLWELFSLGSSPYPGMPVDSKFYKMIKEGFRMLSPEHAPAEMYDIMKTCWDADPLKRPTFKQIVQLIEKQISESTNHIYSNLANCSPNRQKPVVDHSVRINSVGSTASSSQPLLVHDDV

TAOK3 = molecular target: T4, TAOK3 (Homo sapiens, UniProt Q9H2K8)
T4 construct: purchased DiscoverX
T4 sequence (Q9H2K8 1-898): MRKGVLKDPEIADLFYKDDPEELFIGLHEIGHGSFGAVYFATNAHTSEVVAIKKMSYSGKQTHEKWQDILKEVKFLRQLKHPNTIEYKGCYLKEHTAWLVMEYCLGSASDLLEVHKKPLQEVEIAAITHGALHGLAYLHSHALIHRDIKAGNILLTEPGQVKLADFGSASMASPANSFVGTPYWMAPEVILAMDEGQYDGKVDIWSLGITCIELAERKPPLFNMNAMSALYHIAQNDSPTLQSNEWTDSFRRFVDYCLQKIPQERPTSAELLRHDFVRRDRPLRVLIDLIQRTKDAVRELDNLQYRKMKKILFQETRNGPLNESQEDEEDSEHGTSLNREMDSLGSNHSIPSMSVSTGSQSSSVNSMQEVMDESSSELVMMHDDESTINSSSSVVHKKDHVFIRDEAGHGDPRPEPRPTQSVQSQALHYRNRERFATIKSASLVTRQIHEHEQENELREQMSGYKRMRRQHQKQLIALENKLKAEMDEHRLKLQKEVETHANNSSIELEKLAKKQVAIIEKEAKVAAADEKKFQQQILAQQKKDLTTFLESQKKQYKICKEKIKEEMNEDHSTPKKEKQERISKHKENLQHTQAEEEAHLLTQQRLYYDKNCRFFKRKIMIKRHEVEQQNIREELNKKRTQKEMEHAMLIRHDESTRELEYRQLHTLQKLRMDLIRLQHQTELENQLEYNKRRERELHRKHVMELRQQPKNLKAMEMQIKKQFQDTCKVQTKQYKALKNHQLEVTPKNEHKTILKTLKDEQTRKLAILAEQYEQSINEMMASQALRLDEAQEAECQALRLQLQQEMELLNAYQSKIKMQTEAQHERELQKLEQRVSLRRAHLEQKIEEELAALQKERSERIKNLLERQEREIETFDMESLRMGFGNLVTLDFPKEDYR

SMILES: COc1ccc2c(c1)[nH]c1c(C)nc(CO)cc12 [Compound 2-8, (1-Methyl-7-methoxy-9H-pyrido[3,4-b]indol-3-yl)methanol]
- remaining binding at 10 µM (FLT3(D835V); FLT3(D835V) mutant, 10 μM): 42%
- remaining binding at 10 µM (FLT3(K663Q); FLT3(K663Q) mutant, 10 μM): 100%
- remaining binding at 10 µM (KIT(L576P); KIT(L576P) mutant, 10 μM): 94%
- remaining binding at 10 µM (TAOK3; TAOK3, 10 μM): 70%

SMILES: COc1ccc2c3ccnc(C)c3n(CCCc3noc(N)n3)c2c1 [Compound 20-13, 3-(3-(7-Methoxy-1-methyl-β-carbolin-9-yl)propyl)-5-amino-1,2,4-oxadiazole]
- remaining binding at 10 µM (FLT3(D835V)): 2.6%
- remaining binding at 10 µM (FLT3(K663Q)): 98%
- remaining binding at 10 µM (KIT(L576P)): 100%
- remaining binding at 10 µM (TAOK3): 77%

SMILES: C#CCn1c2cc(OC)ccc2c2ccnc(C)c21 [Compound 20-23a, 3-(7-Methoxy-1-methyl-β-carbolin-9-yl)-propan-1-yne]
- remaining binding at 10 µM (FLT3(D835V); FLT3(D835V) mutant, 10 μM): 2.5%
- remaining binding at 10 µM (FLT3(K663Q)): 93%
- remaining binding at 10 µM (KIT(L576P)): 74%
- remaining binding at 10 µM (TAOK3): 93%

SMILES: COc1ccc2c(c1)[nH]c1c(C)nccc12 [Harmine, reference compound]
- remaining binding at 10 µM (FLT3(D835V)): 25%
